Patent US12617767B2, “Crystalline forms of somatostatin modulators” (Crinetics Pharmaceuticals, Inc., priority 2019, dated 2026)

Assay: Storage at ambient conditions (XRPD)
Type: physicochemical
Conditions: 21-22° C., 10-40% RH, a week
Protocol: Characterization after storage under ambient conditions: Pattern B was left at ambient conditions (21-22° C., 10-40% RH) for a week then characterized by)(RFD, TGA/DSC, and water content measured by Karl-Fischer titration. […] The water content was confirmed by KF titration which yielded a value of 4.20 wt. %.
Compound A⋅2MSA (Pattern A, 0.2622 g) was added to a 20 mL vial with a stir bar. Fifteen volumes (3.93 mL) of EtOH was added and the slurry was stirred overnight (˜20 hours). The slurry was sampled to confirm the correct pattern was generated, then the solids were collected by filtration. The resultant yellow solid was dried in a vacuum oven at 50° C. under dynamic vacuum for 2 hours, then under static vacuum overnight (˜16 hours) to yield 0.2015 g (77% yield). The in-situ sample drawn was dried for 3 hours then the solid was used for characterization by solution ^1H-NMR spectroscopy and simultaneous TGA/DSC. The bulk was dried overnight and used for stand-alone DSC, and thermal treatment.
Compound A⋅2MSA (Pattern A) was slurried in EtOH overnight at room temperature (ca. 16 hours). […] The bulk was dried in a vacuum oven at 50° C. under dynamic vacuum for 4.5 hours. The dried solids were removed from the oven and a “dry” XRPD analysis was collected.
Compound A⋅2MSA (Pattern A, 0.2659 g) was added to a 20 mL vial with a stir bar. Twenty-five volumes (6.65 mL) of ACN was added and the slurry was stirred overnight (˜20 hours). The slurry was sampled to confirm the correct pattern was generated, then the solids were collected by filtration. The resultant yellow solid was dried in a vacuum oven at 50° C. under dynamic vacuum for 2 hours, then under static vacuum overnight (˜16 hours) to yield 0.2255 g (85% yield). The sample drawn was dried for 3 hours then the solid was used for characterization by solution ^1H-NMR spectroscopy and simultaneous TGA/DSC. The bulk was dried overnight and used for stand-alone DSC.

Compound: CS(=O)(=O)O.CS(=O)(=O)O.N#Cc1cccc(-c2ccc3ncc(-c4cc(F)cc(F)c4)c(N4CCC(N)CC4)c3c2)c1O [Pattern B, 3-(4-(4-aminopiperidin-1-yl)-3-(3,5-difluorophenyl)quinolin-6-yl)-2-hydroxybenzonitrile dimesylate]
- XRPD pattern after storage at ambient conditions: identical to Pattern B
